Experiments:
15-PGDH = target: T1, 15-PGDH (Homo sapiens, UniProt P15428); experiment: 15-PGDH enzyme inhibition assay (fluorescence, NAD+/PGE2); type: biochemical; details: 15-PGDH inhibition
T1 construct: purchased R&D Systems 5660-DH-010
T1 sequence (P15428 1-266): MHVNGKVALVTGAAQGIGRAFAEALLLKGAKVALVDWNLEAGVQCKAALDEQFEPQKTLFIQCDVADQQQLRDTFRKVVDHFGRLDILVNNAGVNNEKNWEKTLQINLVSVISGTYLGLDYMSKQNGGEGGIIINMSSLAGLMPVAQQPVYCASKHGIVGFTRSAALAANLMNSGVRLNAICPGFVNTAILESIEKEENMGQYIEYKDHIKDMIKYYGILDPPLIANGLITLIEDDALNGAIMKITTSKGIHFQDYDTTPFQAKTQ
Experimental: 15-PGDH (R&D Systems, Cat. No. 5660-DH-010) was prepared to twice the final concentration, i.e., 30 nM, using Assay Buffer (50 mM Tris-HCl, pH 7.5, 0.01% Tween 20 by volume). 15-PGDH was then added to a 384-well white plate (Cisbio Bioassays, Cat. No. 66PL384025) at 8 µL/well. Negative control wells (with Assay Buffer only and without enzyme) were set. The compound was then prepared to 4 times the final concentration using Assay Buffer, i.e., diluted 3-fold to 10 concentrations starting from 4000 nM. The compound was added to the above white plate at 4 µL/well, mixed well, centrifuged at 1000 rpm for 1 minute, and incubated at 25°C for 10 minutes. Both positive control wells (with 15-PGDH only) and negative control wells (without 15-PGDH) were set. A mixture of NAD^+ (Select, Cat. No. S2518) and PGE2 (R&D Systems, Cat. No.:2296110) was then prepared using Assay Buffer. NAD^+ and PGE2 were prepared to four times their final concentrations, i.e., 2 mM and 0.12 mM, respectively, using Assay Buffer. The mixture was then added to the above white plate at 4 µL/well, mixed well, centrifuged at 1000 rpm for 1 minute, and incubated at 25°C for 30 minutes for the reaction. The fluorescence was measured at an excitation wavelength of 340 nm and an emission wavelength of 485 nm using a TECAN SPARK 20M microplate reader. The IC50 value was calculated using four-parameter fitting with GraphPad Prism 8.0.

[1] = Pharmacokinetics in mice (oral gavage); type: in vivo; details: mouse, plasma, male CD-1 mice, 10 mg/kg
Experimental: The pharmacokinetic properties of the compounds obtained in Example 1 in mice were determined with reference to the following experimental methods.
Three male CD-1 mice were administered by oral gavage at a dose of 10 mg/kg, and the vehicle was 5% DMSO + 10% Solutol + 85% Saline. The mice were fasted overnight, and the time points of blood collection were before administration and at 15 minutes, 30 minutes, 1 hour, 2 hours, 4 hours, 8 hours, and 24 hours after administration. Blood samples were centrifuged at 6,800 g for 6 minutes at 2 to 8°C, and plasma was collected and stored at - 80°C. 10 µL of plasma at each time point was taken and added with 200 µL of methanol containing 100 ng/mL internal standard. The mixture was vortexed, mixed well, and centrifuged at 18,000 g for 7 minutes at 2 to 8°C. 200 µL of the mixture was transferred to a 96-well injection plate for LC-MS/MS quantitative analysis. The main pharmacokinetic parameters were analyzed using WinNonlin 7.0 software with non-compartmental model.

IBD in mice = experiment: Efficacy on IBD in mice (DSS-induced); type: in vivo, C57BL/6 mice; details: for CL (colon length) / CL/CW/BW / CW (colon weight) / DAI / body weight / inflammatory cell infiltration score (histopathological examination of colon tissues) / tissue injury score (histopathological examination of colon tissues): compared with G2 model group; for Colon length CL / Colon weight CW: day 0 to day 9, necropsy day 10
Experimental: The mice in G2 to G6 were given 2% DSS aqueous solution on day 0 to day 6, normal water on […], vehicle/positive/test substance on day 0 to day 9, and euthanized on day 10 for necropsy. Colon weight (CW) and colon length (CL) were measured and colon tissues […] were subjected to histopathological examination.

[2] = test system: mouse IPF treatment model; experiment: Efficacy test on mouse IPF treatment model (Bleomycin-induced); type: in vivo, mice; details: mean, oral gavage, 14 consecutive days from day 7
Experimental: (§1) Male mice were adaptively fed for 1 to 2 weeks and after reaching the standard weight (25 g), the IPF model (idiopathic pulmonary fibrosis model) was induced with a certain dose of Bleomycin. On the day of modeling, the animals were randomly divided into a model group and an administration group according to their weight, in which the administration groups were administered Nintedanib (60 mg/kg, qd), low-dose compound I-3B obtained in Example 1 (1 mg/kg, bid), and high-dose compound I-3B obtained in Example 1 (2.5 mg/kg, bid) by oral gavage for 14 consecutive days starting from day 7 while the vehicle control group was administered blank vehicle. During the administration period, the animals were weighed twice a week. At the end of the last day of administration, the animals were euthanized. The lungs were removed from the thyroid cartilage (without perfusion), slowly perfused with 10% formalin until both lungs were filled, and fixed in 10% formalin 5 to 10 times the volume of the tissues after the trachea was ligated. The left lung tissues were embedded in paraffin wax, sectioned, and stained with HE and Masson Trichrome. The sections were subjected to panoramic scanning using a Hamamatsu NanoZoomer Digital Pathology (S210) slide scanner for pathological analysis.

[3] = test system: mouse IPF prevention model; experiment: Efficacy test on mouse IPF prevention model (Bleomycin-induced); type: in vivo, mice; details: mean; compound I-3B 2.5 mg/kg bid, oral gavage, 21 consecutive days
Experimental: as §1, with “once a day (qd))” for “qd), low-dose compound I-3B obtained in Example 1 (1 mg/kg, bid),”, “and” for “and high-dose”, “twice a day (bid))” for “bid)”, “21” for “14”, “days” for “days starting from day 7”, “every 3 days.” for “twice a week.”

Cn1nc2cc(N3C[C@H]4C[C@H]4c4cc(C(=O)N5CCC(F)(F)CC5)cnc43)ccn2c1=O (single isomer, unassigned) [compound I-3B]
IC50 (15-PGDH): 3.58 nM | AUC(0-t) [1]: 33.2 µg·h/mL | Cmax [1]: 4.48 µg/mL | IBD symptoms and tissue injury in mice (IBD in mice; 2.5 mg/kg and 5 mg/kg, efficacy better than that of the positive control): significantly improve | CL (colon length) (IBD in mice; G4, 2.5 mg/kg-bid): significant increase | CL/CW/BW (IBD in mice; G4, 2.5 mg/kg-bid): significant decrease | CW (colon weight) (IBD in mice; G4, 2.5 mg/kg-bid): significant decrease | DAI (IBD in mice; G4, 2.5 mg/kg-bid): significant decrease | body weight (IBD in mice; G4, 2.5 mg/kg-bid): increase | inflammatory cell infiltration score (histopathological examination of colon tissues) (IBD in mice; G4, 2.5 mg/kg-bid): significant decrease | tissue injury score (histopathological examination of colon tissues) (IBD in mice; G4, 2.5 mg/kg-bid): significant decrease | CL (colon length) (IBD in mice; G5, 5 mg/kg-bid): significant increase | CL/CW/BW (IBD in mice; G5, 5 mg/kg-bid): significant decrease | CW (colon weight) (IBD in mice; G5, 5 mg/kg-bid): significant decrease | DAI (IBD in mice; G5, 5 mg/kg-bid): significant decrease | body weight (IBD in mice; G5, 5 mg/kg-bid): significant increase | inflammatory cell infiltration score (histopathological examination of colon tissues) (IBD in mice; G5, 5 mg/kg-bid): significant decrease | tissue injury score (histopathological examination of colon tissues) (IBD in mice; G5, 5 mg/kg-bid): significant decrease | Colon length CL (IBD in mice; high-dose group (5 mg/kg)): 6.50 cm | Colon weight CW (IBD in mice; high-dose group (5 mg/kg)): 0.16 g | Colon length CL (IBD in mice; low-dose group (2.5 mg/kg)): 6.67 cm | Colon weight CW (IBD in mice; low-dose group (2.5 mg/kg)): 0.17 g | Total pulmonary fibrosis score ([2]; high-dose 2.5 mg/kg bid): 2.6 | Total pulmonary fibrosis score ([2]; low-dose 1 mg/kg bid): 2.74 | Total pulmonary fibrosis score [3]: 3.34

Reference: patent publication EP4711372A1, “CRYSTAL FORM OF HETEROCYCLIC COMPOUND, SALT THEREOF, CRYSTAL FORM OF SALT THEREOF, AND USE” (Hubei Bio-Pharmaceutical Industrial Technological Institute …, priority 2023, dated 2024)
